Experimental data reported in US20250312352A1, “GLP-1R MODULATING COMPOUNDS” (Gilead Sciences, Inc., priority 2021, published 2025).

target: T1, GLP-1R (Homo sapiens, UniProt P43220); assay: GLP-1R activation cAMP assay (Assay 1 or Assay 2); format: cell-based; settings: cAMP increase in CHO cells stably expressing GLP-1R; compounds run on one of the two cAMP assays
T1 construct: host or cells: CHO cells
Method: GLP-1R ACTIVATION—cAMP Assay 1
GLP-1R activation by compounds of the present disclosure was quantified by measuring cAMP increase in CHO cells stably expressing GLP-1R (MultiSpan product #C1267-1a). The cells were harvested and plated in growth medium (DMEM/F-12 (Corning product #10-090-CV) supplemented with 10% FBS (HyClone product #SH30071-03), penicillin/streptomycin (Corning product #30-002CI) and 10 μg/ml puromycin (Gibco product #A11138-03)) at 1,000 cells/well in a 384-well plate (Greiner product #781080). The cells were then incubated overnight at 37° C., 5% CO2. The next day, the medium was removed and the cells were washed with DPBS (Corning product #21-031-CM) before adding the assay medium (HBSS, Corning product #21-023-CV) with 20 mM Hepes (Gibco product #15630-080) and 0.1% BSA (Rockland Immunochemicals product #BSA-1000)). Following the medium change, the cells were incubated for 1 hour at 37° C., 5% CO2. The tested GLP-1 compound was added to the cells in a 10-point dose response followed by a 30-minute incubation at 37° C., 5% CO2. cAMP concentration increase was then detected using Cisbio's cAMP Gs Dynamic Kit (product #62AM4PEC) according to the manufacturer's protocol. The response was plotted against the log of the agonist concentration and fitted to a sigmoidal equation to determine the EC50.
GLP-1R ACTIVATION—cAMP Assay 2
GLP-1R activation by small molecule agonists was quantified by measuring cAMP increase in CHO cells stably expressing GLP-1R (MultiSpan product #C1267-1a). 50 nL of agonists were pre-spotted in a 10-point dose response onto 384-well plate (Corning product #CL3826) using the Labcyte Echo System.

T1 sequence (P43220 24-463): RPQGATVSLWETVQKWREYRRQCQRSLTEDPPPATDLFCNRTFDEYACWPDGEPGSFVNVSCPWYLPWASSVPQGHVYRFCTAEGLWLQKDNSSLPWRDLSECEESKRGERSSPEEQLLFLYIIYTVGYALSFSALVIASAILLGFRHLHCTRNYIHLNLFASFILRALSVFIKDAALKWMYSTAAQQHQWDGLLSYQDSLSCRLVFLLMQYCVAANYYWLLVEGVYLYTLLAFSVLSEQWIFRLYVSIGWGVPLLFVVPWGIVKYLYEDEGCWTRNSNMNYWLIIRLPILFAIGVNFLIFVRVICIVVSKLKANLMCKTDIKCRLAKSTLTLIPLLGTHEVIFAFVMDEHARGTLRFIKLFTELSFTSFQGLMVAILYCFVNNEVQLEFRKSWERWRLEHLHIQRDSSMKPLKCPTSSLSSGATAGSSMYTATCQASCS

Row | Compound | EC50
1 | 2-(4-(6-((5-(difluoromethyl)thiazol-2-yl)methoxy)pyridin-2-yl)-2,5-difluorobenzyl)-4-fluoro-1-((1-(fluoromethyl)cyclopropyl)methyl)-1H-benzo[d]imidazole-6-carboxylic acid [Example 413] | 0.36 nM
2 | 2-(4-(6-((5-chlorothiazol-2-yl)methoxy)pyridin-2-yl)-2,5-difluorobenzyl)-1-((1-(fluoromethyl)cyclopropyl)methyl)-1H-benzo[d]imidazole-6-carboxylic acid [Example 269] | 0.748 nM
3 | Cc1nnc(COc2cccc(-c3cc(F)c(Cc4nc5ccc(C(=O)O)cc5n4[C@@H]4COCC4(C)C)c(F)c3F)n2)s1 (single isomer, unassigned) [Example 281A] | 0.27 nM
4 | Cc1nnc(COc2cccc(-c3cc(F)c(Cc4nc5ccc(C(=O)O)cc5n4[C@H]4COCC4(C)C)c(F)c3F)n2)s1 (single isomer, unassigned) [Example 281B] | 20.8 nM
5 | COc1nnc(COc2cccc(-c3cc(F)c(Cc4nc5ccc(C(=O)O)cc5n4C[C@@H]4CCO4)cc3F)n2)s1 [Example 1, 2-[[2,5-difluoro-4-[6-[(5-methoxy-1,3,4-thiadiazol-2-yl)methoxy]-2-pyridyl]phenyl]methyl]-3-[[(2S)-oxetan-2-yl]methyl]benzimidazole-5-carboxylic acid] | 0.27 nM
6 | N#Cc1cnc(COc2cccc(-c3cc(F)c(Cc4nc5ccc(C(=O)O)cc5n4C[C@@H]4CCO4)cc3F)n2)s1 [Example 2, (S)-2-(4-(6-((5-cyanothiazol-2-yl)methoxy)pyridin-2-yl)-2,5-difluorobenzyl)-1-(oxetan-2-ylmethyl)-1H-benzo[d]imidazole-6-carboxylic acid] | 0.11 nM
7 | NC(=O)c1cnc(COc2cccc(-c3cc(F)c(Cc4nc5ccc(C(=O)O)cc5n4C[C@@H]4CCO4)cc3F)n2)s1 [Example 3, (S)-2-(4-(6-((5-carbamoylthiazol-2-yl)methoxy)pyridin-2-yl)-2,5-difluorobenzyl)-1-(oxetan-2-ylmethyl)-1H-benzo[d]imidazole-6-carboxylic acid] | 3.15 nM
8 | NC(=O)c1csc(COc2cccc(-c3cc(F)c(Cc4nc5ccc(C(=O)O)cc5n4C[C@@H]4CCO4)cc3F)n2)n1 [Example 5, (S)-2-(4-(6-((4-carbamoylthiazol-2-yl)methoxy)pyridin-2-yl)-2,5-difluorobenzyl)-1-(oxetan-2-ylmethyl)-1H-benzo[d]imidazole-6-carboxylic acid] | 0.5 nM
9 | O=C(O)c1ccc2nc(Cc3cc(F)c(-c4cccc(OCc5ccn(C6CC6)n5)n4)cc3F)n(C[C@@H]3CCO3)c2c1 [Example 6, (S)-2-(4-(6-((1-cyclopropyl-1H-pyrazol-3-yl)methoxy)pyridin-2-yl)-2,5-difluorobenzyl)-1-(oxetan-2-ylmethyl)-1H-benzo[d]imidazole-6-carboxylic acid] | 3.09 nM
10 | O=C(O)c1ccc2nc(Cc3cc(F)c(-c4cccc(OCc5cc6n(n5)CCOC6)n4)cc3F)n(C[C@@H]3CCO3)c2c1 [Example 7, (S)-2-(4-(6-((6,7-dihydro-4H-pyrazolo[5,1-c][1,4]oxazin-2-yl)methoxy)pyridin-2-yl)-2,5-difluorobenzyl)-1-(oxetan-2-ylmethyl)-1H-benzo[d]imidazole-6-carboxylic acid] | 3.71 nM
11 | NC(=O)c1nc(COc2cccc(-c3cc(F)c(Cc4nc5ccc(C(=O)O)cc5n4C[C@@H]4CCO4)cc3F)n2)cs1 [Example 8, (S)-2-(4-(6-((2-carbamoylthiazol-4-yl)methoxy)pyridin-2-yl)-2,5-difluorobenzyl)-1-(oxetan-2-ylmethyl)-1H-benzo[d]imidazole-6-carboxylic acid] | 0.92 nM
12 | O=C(O)c1ccc2nc(Cc3cc(F)c(-c4cccc(OCc5ccn(C(F)F)n5)n4)cc3F)n(C[C@@H]3CCO3)c2c1 [Example 9, (S)-2-(4-(6-((1-(difluoromethyl)-1H-pyrazol-3-yl)methoxy)pyridin-2-yl)-2,5-difluorobenzyl)-1-(oxetan-2-ylmethyl)-1H-benzo[d]imidazole-6-carboxylic acid] | 0.95 nM
13 | O=C(O)c1ccc2nc(Cc3cc(F)c(-c4cccc(OCc5ccn(C6COC6)n5)n4)cc3F)n(C[C@@H]3CCO3)c2c1 [Example 10, (S)-2-(2,5-difluoro-4-(6-((1-(oxetan-3-yl)-1H-pyrazol-3-yl)methoxy)pyridin-2-yl)benzyl)-1-(oxetan-2-ylmethyl)-1H-benzo[d]imidazole-6-carboxylic acid] | 7.55 nM
14 | O=C(O)c1ccc2nc(Cc3cc(F)c(-c4cccc(OCc5nccs5)n4)cc3F)n(C[C@@H]3CCO3)c2c1 [Example 11, (S)-2-(2,5-difluoro-4-(6-(thiazol-2-ylmethoxy)pyridin-2-yl)benzyl)-1-(oxetan-2-ylmethyl)-1H-benzo[d]imidazole-6-carboxylic acid] | 0.6 nM
15 | O=C(O)c1ccc2nc(Cc3cc(F)c(-c4cccc(OCc5ccn(C(F)(F)F)n5)n4)cc3F)n(C[C@@H]3CCO3)c2c1 [Example 12, (S)-2-(2,5-difluoro-4-(6-((1-(trifluoromethyl)-1H-pyrazol-3-yl)methoxy)pyridin-2-yl)benzyl)-1-(oxetan-2-ylmethyl)-1H-benzo[d]imidazole-6-carboxylic acid] | 1.16 nM
16 | O=C(O)c1ccc2nc(Cc3cc(F)c(-c4cccc(OCc5cc(C(F)(F)F)sn5)n4)cc3F)n(C[C@@H]3CCO3)c2c1 [Example 13, (S)-2-(2,5-difluoro-4-(6-((5-(trifluoromethyl)isothiazol-3-yl)methoxy)pyridin-2-yl)benzyl)-1-(oxetan-2-ylmethyl)-1H-benzo[d]imidazole-6-carboxylic acid] | 0.54 nM
17 | N#Cc1ccc(COc2cccc(-c3cc(F)c(Cc4nc5ccc(C(=O)O)cc5n4C[C@@H]4CCO4)cc3F)n2)o1 [Example 14, (S)-2-(4-(6-((5-cyanofuran-2-yl)methoxy)pyridin-2-yl)-2,5-difluorobenzyl)-1-(oxetan-2-ylmethyl)-1H-benzo[d]imidazole-6-carboxylic acid] | 5.68 nM
18 | O=C(O)c1ccc2nc(Cc3cc(F)c(-c4cccc(OCc5nnc(C(F)F)s5)n4)cc3F)n(C[C@@H]3CCO3)c2c1 [Example 15, (S)-2-(4-(6-((5-(difluoromethyl)-1,3,4-thiadiazol-2-yl)methoxy)pyridin-2-yl)-2,5-difluorobenzyl)-1-(oxetan-2-ylmethyl)-1H-benzo[d]imidazole-6-carboxylic acid] | 0.96 nM
19 | COCc1noc(COc2cccc(-c3cc(F)c(Cc4nc5ccc(C(=O)O)cc5n4C[C@@H]4CCO4)cc3F)n2)n1 [Example 16, (S)-2-(2,5-difluoro-4-(6-((3-(methoxymethyl)-1,2,4-oxadiazol-5-yl)methoxy)pyridin-2-yl)benzyl)-1-(oxetan-2-ylmethyl)-1H-benzo[d]imidazole-6-carboxylic acid] | 8.86 nM
20 | Cc1nc(COc2cccc(-c3cc(F)c(Cc4nc5ccc(C(=O)O)cc5n4C[C@@H]4CCO4)cc3F)n2)no1 [Example 17, (S)-2-(2,5-difluoro-4-(6-((5-methyl-1,2,4-oxadiazol-3-yl)methoxy)pyridin-2-yl)benzyl)-1-(oxetan-2-ylmethyl)-1H-benzo[d]imidazole-6-carboxylic acid] | 7 nM
21 | O=C(O)c1ccc2nc(Cc3cc(F)c(-c4cccc(OCc5cc(C(F)(F)F)co5)n4)cc3F)n(C[C@@H]3CCO3)c2c1 [Example 18, (S)-2-(2,5-difluoro-4-(6-((4-(trifluoromethyl)furan-2-yl)methoxy)pyridin-2-yl)benzyl)-1-(oxetan-2-ylmethyl)-1H-benzo[d]imidazole-6-carboxylic acid] | 0.32 nM
22 | O=C(O)c1ccc2nc(Cc3cc(F)c(-c4cccc(OCc5nccn5C(F)F)n4)cc3F)n(C[C@@H]3CCO3)c2c1 [Example 19, (S)-2-(4-(6-((1-(difluoromethyl)-1H-imidazol-2-yl)methoxy)pyridin-2-yl)-2,5-difluorobenzyl)-1-(oxetan-2-ylmethyl)-1H-benzo[d]imidazole-6-carboxylic acid] | 23.2 nM
23 | O=C(O)c1ccc2nc(Cc3cc(F)c(-c4cccc(OCc5cnc(Cl)s5)n4)cc3F)n(C[C@@H]3CCO3)c2c1 [Example 20, (S)-2-(4-(6-((2-chlorothiazol-5-yl)methoxy)pyridin-2-yl)-2,5-difluorobenzyl)-1-(oxetan-2-ylmethyl)-1H-benzo[d]imidazole-6-carboxylic acid] | 0.33 nM
24 | O=C(O)c1ccc2nc(Cc3cc(F)c(-c4cccc(OCc5cnc(Br)s5)n4)cc3F)n(C[C@@H]3CCO3)c2c1 [Example 21, (S)-2-(4-(6-((2-bromothiazol-5-yl)methoxy)pyridin-2-yl)-2,5-difluorobenzyl)-1-(oxetan-2-ylmethyl)-1H-benzo[d]imidazole-6-carboxylic acid] | 0.41 nM
25 | O=C(O)c1ccc2nc(Cc3cc(F)c(-c4cccc(OCc5ncc(Br)s5)n4)cc3F)n(C[C@@H]3CCO3)c2c1 [Example 22, (S)-2-(4-(6-((5-bromothiazol-2-yl)methoxy)pyridin-2-yl)-2,5-difluorobenzyl)-1-(oxetan-2-ylmethyl)-1H-benzo[d]imidazole-6-carboxylic acid] | 0.17 nM
